Assays:
[1] = test system: MDA-MB-231 breast cancer cells; test: Viability of breast cancer cells compared to normal fibroblasts; format: cell-based; conditions: MDA-MB-231 vs normal non-transformed human foreskin fibroblasts (HFFs)
Method: FIGS. 1A-1H. Ivermectin kills breast cancer cells through a mixed apoptotic and necrotic mechanism. FIG. 1A: Mouse (4T1.2) and human (MDA-MB-231) TNBC cells manifest similar sensitivity to Ivermectin. Viability of cells treated with various doses of Ivermectin for 24 h. FIG. 1B: Extended exposure time reduces IC50 values to as low as 2 μM. 4T1.2 cells were seeded at 100 cells/well and individual colonies were counted after a week. Cancer cells were exposed to Ivermectin during the initial 24 h or during the entire duration of the assay. FIG. 1C: MDA-MB-231 breast cancer cells manifest higher sensitivity to Ivermectin compared to normal non-transformed human foreskin fibroblasts (HFFs). FIG. 1D: Flow cytometry analysis showing that cell death proceeds through two distinct pathways: a directly necrotic 7AAD-single positive or Annexin V/PS-single positive apoptotic pathway. FIG. 1E: Kinetics of necrotic versus apoptotic killing of 4T1.2 breast cancer cells. FIG. 1F: Ivermectin-induced cell death can be reversed by inhibition of various controlled cell death pathways. […]
(§1) Cell viability. […] Following treatment the plates were washed once with PBS and cell viability was measured using the acid phosphatase assay. […] Absorption at 405 nm was measured within 10 min using a multi-well plate reader. Mode of cell death and viability of cells in suspension was evaluated using flow cytometry. […]

[2] = test system: 4T1.2 breast cancer cells; test: Plasma membrane polarization; format: cell-based; conditions: mouse 4T1.2 cells
Method: Plasma membrane polarization. Cancer cells in suspension were treated with various doses of Ivermectin in the presence of 0.5 μM DiBAC4 (3) (Sigma D8189). Treatments were performed in serum free RPMI medium and cells were analyzed by flow cytometry after 1h of incubation. De-/hyper-polarization results in increased/decreased fluorescence in the GFP channel, respectively.

breast cancer cells = test: Induction of autophagy (GFP-LC3 puncta, Western blot LC3 / p62); format: cell-based, mouse, human
Method: FIGS. 6A-6E. Ivermectin induces autophagy. FIG. 6A: Ivermectin induces autophagy in breast cancer cells. MDA-MB-231 GFL-LC3 cells were treated with different doses of Ivermectin for 24 h and formation of green fluorescent puncta was evaluated by confocal fluorescence microscopy. FIG. 6B: Western blot confirming the induction of autophagy in both murine and human breast cancer cells, as evidenced by LC3 lipidation and autophagic degradation of p62(SQSTM1). […] MDA-MB-231 cells (triplicates) were treated with different doses of Ivermectin for up to 24h and surface stained with antibody-specific for the human M6P receptor versus isotype control. Similarly, 4T1.2 and MB231 cells were treated with different doses of Ivermectin for 4-24 h, and were stained with an antibody specific for both human and mouse CRT versus isotype control. Mean fluorescent intensity (MFI) values and ratios versus isotype control were calculated after gating on live/membrane-intact cells. FIG. 6D: Ivermectin (32 μM) induces release of HMGB1 from murine and human TNBC cells (triplicates). […] Asterisk (*) indicates p<0.05 relative to untreated or Ivermectin alone controls, respectively.
Western Blotting. […] Activation and cleavage of caspases was evaluated using antibodies specific for caspase-1 (NOVUS, NBP1-45433) and caspase-3 (Cell Signaling, 9665). […]

[3] = test system: Calreticulin (CRT) and Mannose-6 Phosphate receptor; test: Surface exposure of CRT and Mannose-6 Phosphate receptor; format: cell-based, mouse, human
Method: FIGS. 6A-6E. Ivermectin induces autophagy. FIG. 6A: Ivermectin induces autophagy in breast cancer cells. MDA-MB-231 GFL-LC3 cells were treated with different doses of Ivermectin for 24 h and formation of green fluorescent puncta was evaluated by confocal fluorescence microscopy. FIG. 6B: Western blot confirming the induction of autophagy in both murine and human breast cancer cells, as evidenced by LC3 lipidation and autophagic degradation of p62(SQSTM1). […] MDA-MB-231 cells (triplicates) were treated with different doses of Ivermectin for up to 24h and surface stained with antibody-specific for the human M6P receptor versus isotype control. Similarly, 4T1.2 and MB231 cells were treated with different doses of Ivermectin for 4-24 h, and were stained with an antibody specific for both human and mouse CRT versus isotype control. Mean fluorescent intensity (MFI) values and ratios versus isotype control were calculated after gating on live/membrane-intact cells. […]
Surface exposure of CRT and Mannose-6 Phosphate receptor. Surface exposure of Calreticulin (CRT) and Mannose-6 Phosphate receptor (CD220) was evaluated by staining with monoclonal antibodies specific for CRT (unconjugated, specific for both mouse and human, Abcam ab22683, and PE-conjugated, specific for human only, Abcam, ab83220) and CD220 (Thermo […]

[4] = test system: breast (MCF7), prostate (DU-145), head and neck (A253), and ovarian (SKOV3) cancer cells; test: Killing of resistant human cancer cell lines by Ivermectin and ATP; format: cell-based; conditions: Ivermectin 16 μM, exogenous ATP 3 mM
Method: FIGS. 5A-5E. CaMKII-independent P2X7-mediated killing. FIG. 5A: qPCR showing the extent of gene knockdown in 4T1.2 cells transfected with shRNA targeting the P2X7 receptor versus non-targeting (NT) control (left panel). […] One million wt, shRNA(NT) and shRNA(P2X7) 4T1.2 cells were plated and incubated for 48 h before evaluation of cell numbers and viability. FIG. 5B: P2X7 knockdown cells are more resistant to ATP and the ATP/IVM combo. 4T1.2 cells were treated for 24 h with 1-3 mM ATP, 6-10 μM Ivermectin, or combinations of ATP and Ivermectin. P2X7 knockdown suppresses the synergy between Ivermectin and high dose ATP, as shown by calculation of combination index (CI) values, see Table 2. FIG. 5C: P2X7 knockdown cells are resistant to ATP/Ivermectin induced membrane permeabilization (Asterisk (*) indicates p<0.05). […] FIG. 5E: Comparison of the protective effects of P2X7, CaMKII, and NADPH oxidases inhibition in short-term (4 h, 32 μM IVM) and long-term (24 h, 12 μM IVM) exposure of 4T1.2 cells to Ivermectin. Asterisk (*) indicates p<0.05 relative to Ivermectin alone controls.
as §1

CC[C@H](C)[C@H]1O[C@]2(CC[C@@H]1C)C[C@@H]1C[C@@H](C/C=C(\C)[C@@H](O[C@H]3C[C@H](OC)[C@@H](O[C@H]4C[C@H](OC)[C@@H](O)[C@H](C)O4)[C@H](C)O3)[C@@H](C)/C=C/C=C3\CO[C@@H]4[C@H](O)C(C)=C[C@@H](C(=O)O1)[C@]34O)O2 [Ivermectin]
sensitivity of breast cancer cells versus normal cells [1]: higher sensitivity than normal cells
plasma membrane polarization [2]: plasma membrane hyper-polarization
induction of autophagy (breast cancer cells): potent inducer of autophagy
surface exposure of Calreticulin (CRT) ([3]; 4T1.2 and MB231 cells, 4-24 h): does not significantly impact surface CRT
plasma membrane exposure of M6P receptors ([3]; MDA-MB-231 cells, up to 24 h): up-regulate plasma membrane exposure of mannose-6-phosphate (M6P) receptors
killing by combination of Ivermectin and ATP [4]: synergistically kill

From patent publication US11058700B2, “Macrocyclic lactones and uses thereof as modulators of purinergic receptors” (City of Hope, priority 2015, dated 2021)
